Measured values: US20150335678A1, “METHOD OF ACTIVATING STEM CELLS IN AN ANIMAL AND THE USE OF CHLORINE DIOXIDE FOR PREPARING MEDICINES FOR ACTIVATING STEM CELLS IN AN ANIMAL” (priority 2012, published 2015)

Key:
[1] = tested on: androgenetic alopecia (hair-loss patients); experiment: Androgenetic alopecia patients, solution smeared on alopecia area (Example 1); conditions: for increased ratio of hair density vs before administration, Region 1 (center of crown) / increased ratio of hair density vs before administration, Region 2 (middle of crown and forehead) / increased ratio of hair density vs before administration, Region 3 (on the forehead) / increased ratio of hair density vs before administration, Region 4 (both sides of forehead): 5.1 cm2 circle
Procedure: Drug preparation: The first solution was a mixed solution made of sodium chlorite with the concentration of 7.47% and sodium chloride with the concentration of 1.59% with deionized water; the second solution was made of citric acid with the concentration of 16.7% with deionized water.
Dosage and administration: Same volume of solutions were taken out from different vessels with different volumes and put into the suitable glass or plastic cups prepared. Allow the solution to mix for 3-5 minutes and then filter the solution with 0.22 μm filter membrane of double-deck. The alopecia area was smeared with the solution by swab, waiting for 1-2 hours before cleaning the head, once a day. The medicine was taken according to the course of treatment. The first course of treatment was 15-25 days, the second course of treatment began after 2-5 months of drug withdrawal. The administration days were 10-15 days from the second course of treatment, and the next course of treatment began after 2-5 months of drug withdrawal.
The subjects consisted of 42 male hair-loss patients and one patient (22-68 years old.) They were willing to use the drug (hereinafter referred to as administration). See Table 1 for specific information.
To select four circular regions (5.1 cm^2) with diameter of 2.54 cm in the following regions: the center of crown (in front of the whirl on the head, region 1), the middle of crown and forehead (region2), on the forehead (region 3), both sides of forehead (region 4), and calculate the amount of hair through digital photographs respectively on the 10th day (t1), the first month (t2), second month (t3) after administration of the first course of treatment, and the second month (t4) after administration of the second course of treatment, as well as the second month (t5) after administration of the third course of treatment. Then the increased ratios of hair density in different regions were worked out by comparing the amount of hair before administration. (See Table 2)

rat = conditions: ClO2 276.5 mg/L, cited from earlier work
[2] = tested on: skin and eye mucous membrane; conditions: content of chlorine dioxide 9.7˜11.4 mg/L; 48 h; cited from earlier work
[3] = tested on: chronic and allergic rhinitis; experiment: Chronic and allergic rhinitis patients vs ephedrine nose drops (Example 9); format: in vivo, human
Source text: The subjects consisted of 30 patients with chronic and allergic rhinitis, and half of them were randomly assigned to treatment group and control group.
The first solution was a mixed solution made of sodium chlorite with the concentration of 7.47% and sodium chloride with the concentration of 1.59% with deionized water; the second solution was made of citric acid with the concentration of 16.7% with deionized water. The solution comprising chlorine dioxide was made by mixing up the two solutions above. To make 50 ml solution for each patient each time and put it into a bottle and stores it in the refrigerator. 2-5 ml of solution for each patient each time was taken out and put into a beaker. The patients would breathe aiming at the cup-mouth for one to two minutes, and then the solution was diluted five to hundred times with normal saline before being put into nasal spray. To spray on each side of nose for three to five times. It was conducted once a day for consecutive 5 to 10 days. Then the administration was stopped, reuse the administration method for recurrence. The course of treatment was three months. The administration for patients in control group: use the ephedrine nose drops three times a day with three drops on each side each time for consecutive seven days. Reuse the administration method for recurrence. The course of treatment was three months.
Evaluation of the effects: The effects can be divided into excellent, effective and ineffective according to symptoms and signs. 1) Excellent: subjective symptoms disappear and positive sign become normal. 2) Effective: subjective symptoms and positive sign decrease obviously. […] Total effective rate(%)=(No. of excellent cases+No. of effective cases)/total cases×100%. Recurrence rate of rhinitis after treatment means the recurrence rate six months after treatment of all the cases. Table 19 is about the treatment of rhinitis.

[4] = 2-6 days after administration, n=43, NaClO2 7.47% + citric acid 16.7% 1:1, topical once a day
[5] = 3-5 days after administration, n=43, NaClO2 7.47%/NaCl 1.59% + citric acid 16.7% mixed 1:1, smeared on alopecia area once a day
[6] = 15-25 days after administration, n=43, NaClO2 7.47% + citric acid 16.7% 1:1, topical once a day
[7] = T1: 10th day, first course, n=43, NaClO2 7.47% + citric acid 16.7% topical
[8] = T2: first month after administration of first course, n=43, NaClO2 7.47% + citric acid 16.7% topical
[9] = T3: second month after administration of first course, n=43, NaClO2 7.47% + citric acid 16.7% topical
[10] = T4: second month after administration of second course, n=43, NaClO2 7.47% + citric acid 16.7% topical
[11] = T5: second month after administration of third course, n=43, NaClO2 7.47% + citric acid 16.7% topical
[12] = inventor's observation, chlorine dioxide solution applied every day
[13] = medicine stopped for 2-5 months after a course of treatment, n=43, NaClO2 7.47% + citric acid 16.7% 1:1, topical once a day
[14] = 30 cases per group, three-month course

For `[O][Cl+][O-]` [chlorine dioxide solution, chlorine dioxide], the “Effective rate: hair in the affected area fell off quickly” value [1, 4] was 100%, the “No. effective patients: hair in the affected area fell off quickly” value [1, 4] was 43 and the “Effective rate: beard like new hair regrew, seen by naked eyes” value [1, 5] was 98%. For the same compound, the “No. effective patients: beard like new hair regrew, seen by naked eyes” value [1, 5] was 42, the “Effective rate: new hair grew persistently” value [1, 6] was 93% and the “No. effective patients: new hair grew persistently” value [1, 6] was 40. The “increased ratio of hair density vs before administration, Region 1 (center of crown)” value (shortened to “increased ratio … (center of crown)”) ([1]; T1: 10th day, first course, digital photographs, n=43, NaClO2 7.47% + citric acid 16.7% topical once a day) was 123%, the “increased ratio of hair density vs before administration, Region 2 (middle of crown and forehead)” value (shortened to “increased ratio … (middle of crown and forehead)”) [1, 7] was 117% and the “increased ratio of hair density vs before administration, Region 3 (on the forehead)” value (“increased ratio … (on the forehead)” below) [1, 7] was 133%. For the same compound, the “increased ratio of hair density vs before administration, Region 4 (both sides of forehead)” value (“increased ratio … (both sides of forehead)” for short) [1, 7] was 102%, the “increased ratio … (center of crown)” value [1, 8] was 137% and the “increased ratio … (middle of crown and forehead)” value [1, 8] was 129%. The “increased ratio … (on the forehead)” value [1, 8] was 134%, the “increased ratio … (both sides of forehead)” value [1, 8] was 157% and the “increased ratio … (center of crown)” value [1, 9] was 154%. For the same compound, the “increased ratio … (middle of crown and forehead)” value [1, 9] was 142%, the “increased ratio … (on the forehead)” value [1, 9] was 153% and the “increased ratio … (both sides of forehead)” value [1, 9] was 163%. For the same compound, the “increased ratio … (center of crown)” value [1, 10] was 196%, the “increased ratio … (middle of crown and forehead)” value [1, 10] was 185% and the “increased ratio … (on the forehead)” value [1, 10] was 201%. For the same compound, the “increased ratio … (both sides of forehead)” value [1, 10] was 260%, the “increased ratio … (center of crown)” value [1, 11] was 354% and the “increased ratio … (middle of crown and forehead)” value [1, 11] was 402%. The “increased ratio … (on the forehead)” value [1, 11] was 396%, the “increased ratio … (both sides of forehead)” value [1, 11] was 433% and the “time until new hair could grow, most of patients” value ([1]; after administration, topical once a day) was 2 to 3 days. The “duration of stabbing pain after application” value ([1]; human, in vivo) was 15 to 30 min, the “time until new hair grows in alopecia area with hair” value [1, 12] was “third to the fifth day” and the “time until new hair grows in alopecia area without hair” value [1, 12] was “about 20 days”. For the same compound, the “Effective rate: hair recovered by one level, judged by naked eyes” value [1, 13] was 81%, the “No. effective patients: hair recovered by one level, judged by naked eyes” value [1, 13] was 35 and the “skin reaction in the administered area” value ([1]; when administered for three days, red spot like solidified bleeding wound) was “micro wound was produced”. For the same compound, the “accumulative toxicity classification of aqueous solution” value (rat; NaClO2 200 mg/L, NaClO3) was “non-obvious accumulative toxic”, the “toxicity classification of aqueous solution” value (rat; NaClO2 and NaClO3 200 mg/L, ClO2 mixed solution total concentration 553 mg/L) was “actually non-toxic” and the “stimulation score to skin and eye mucous membrane” value [2] was 0. For the same compound, the “Effective (No. of cases): symptoms and signs decrease obviously” value [3, 14] was 3, the “Effective rate = (excellent + effective)/total cases” value [3, 14] was 97% and the “Ineffective (No. of cases)” value [3, 14] was 1. For the same compound, the “Excellent (No. of cases): symptoms disappear, signs normal” value ([3]; 30 cases per group, three-month course, test: NaClO2 7.47% + citric acid 16.7%, breathed 1-2 min then nasal spray diluted 5-100 times, once a day 5 to 10 days, control three times a day seven days) was 26, the “No. of Recurrences” value ([3]; six months after treatment) was 3 and the Recurrence rate ([3]; six months after treatment) was 10%.
